In patent US20050214248A1, “Non-glycosylated polyacrylamide conjugates and their use for cytoprotection” (University of Bern, priority 2002, published 2005):
Like-named read-outs stand apart in the source and are kept apart here. Values belong to the compound of their own block, whether it stands above or below them.

How the values were obtained:
[1] = target: T1, P-selectin (Homo sapiens, UniProt P16109); conditions: cited from earlier work
T1 sequence (P16109 42-830): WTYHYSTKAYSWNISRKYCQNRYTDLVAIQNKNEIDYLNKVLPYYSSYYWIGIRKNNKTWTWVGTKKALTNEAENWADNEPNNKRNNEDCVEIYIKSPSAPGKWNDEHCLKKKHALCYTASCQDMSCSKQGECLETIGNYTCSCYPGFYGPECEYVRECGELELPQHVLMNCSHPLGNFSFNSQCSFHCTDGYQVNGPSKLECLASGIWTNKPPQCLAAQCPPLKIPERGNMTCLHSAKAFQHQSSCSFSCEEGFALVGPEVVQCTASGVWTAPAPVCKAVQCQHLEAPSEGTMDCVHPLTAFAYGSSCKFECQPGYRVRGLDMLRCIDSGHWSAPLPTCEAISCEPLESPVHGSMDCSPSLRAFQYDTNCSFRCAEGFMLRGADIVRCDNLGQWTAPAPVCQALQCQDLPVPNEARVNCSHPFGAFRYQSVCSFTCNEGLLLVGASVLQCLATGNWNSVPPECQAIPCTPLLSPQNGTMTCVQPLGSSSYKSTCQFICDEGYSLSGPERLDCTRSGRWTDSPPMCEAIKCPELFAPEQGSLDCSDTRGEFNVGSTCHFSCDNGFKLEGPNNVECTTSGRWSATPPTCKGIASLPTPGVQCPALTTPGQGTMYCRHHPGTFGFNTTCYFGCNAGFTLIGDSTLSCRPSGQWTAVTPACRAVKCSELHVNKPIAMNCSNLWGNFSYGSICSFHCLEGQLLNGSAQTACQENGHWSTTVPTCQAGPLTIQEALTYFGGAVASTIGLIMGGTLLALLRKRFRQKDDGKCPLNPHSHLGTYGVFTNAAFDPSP

[2] = target: T2, recombinant P-selectin (Homo sapiens, UniProt P16109); assay: In vitro assay for inhibition of P-selectin binding (HSO3Le^a-PAA-biotin binding to immobilized recombinant selectin); conditions: for inhibition of recombinant P-selectin in the cell-free assay: result in words
T2 construct: Recombinant ZZ-selectin (monovalent) lacking the transmembrane and cytosolic domains was produced as C-terminal chimera with the ZZ domain of protein A; made in house
T2 sequence (P16109 42-771 limits assumed): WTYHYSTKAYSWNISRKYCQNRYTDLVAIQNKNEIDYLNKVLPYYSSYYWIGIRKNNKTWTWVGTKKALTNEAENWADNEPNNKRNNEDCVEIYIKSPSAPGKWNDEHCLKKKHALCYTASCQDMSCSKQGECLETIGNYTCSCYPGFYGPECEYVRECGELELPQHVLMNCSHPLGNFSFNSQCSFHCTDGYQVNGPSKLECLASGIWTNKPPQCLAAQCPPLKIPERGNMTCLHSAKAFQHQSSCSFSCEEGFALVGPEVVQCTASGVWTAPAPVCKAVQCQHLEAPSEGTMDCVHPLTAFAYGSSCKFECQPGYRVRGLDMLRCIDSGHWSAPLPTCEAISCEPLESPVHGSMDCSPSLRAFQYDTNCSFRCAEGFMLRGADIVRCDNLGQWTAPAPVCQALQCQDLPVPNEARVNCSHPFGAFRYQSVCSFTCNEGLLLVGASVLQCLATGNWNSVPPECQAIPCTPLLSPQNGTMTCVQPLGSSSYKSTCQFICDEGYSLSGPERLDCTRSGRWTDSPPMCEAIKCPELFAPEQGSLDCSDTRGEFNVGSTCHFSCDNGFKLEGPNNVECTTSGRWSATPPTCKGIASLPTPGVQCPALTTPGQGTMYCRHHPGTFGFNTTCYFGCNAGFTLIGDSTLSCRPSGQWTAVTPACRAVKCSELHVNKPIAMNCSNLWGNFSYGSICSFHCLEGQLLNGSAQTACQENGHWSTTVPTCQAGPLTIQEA
Text: The in vitro test-system is based on the inhibition of HSO3Le^a-PAA-biotin binding to recombinant P-selectin. For details, see example 1.
All PAA-based neoglycoconjugates were from 30 to 40 kDa and obtained according to standard methods (Gordeeva, E. A., Tuzikov, A. B., Galanina, O. E., Pochechueva, T. V. & Bovin, N. V. (2000). Microscale synthesis of glycoconjugate series and libraries. Anal. Biochem. 278, 230-232; Bovin, N. V., Korchagina, E. Yu., Zemlyanukhina, T. V., Byramova, N. E., Galanina, O. E., Zemlyakov, A. E., Ivanov, A. E., Zubov, V. P., and Mochalova, L. V. (1993) Synthesis of polymeric neoglycoconjugates based on N-substituted polyacrylamide. Glycoconj. J. 10, 142-151). sTyr-PAA (containing 80 mol % sTyr) was synthesized using 200% excess of sTyr in relation to the activated polymer. The degree of sTyr substitution was determined by the conjugate's increase in weight. Recombinant ZZ-selectin (monovalent) lacking the transmembrane and cytosolic domains was produced as C-terminal chimera with the ZZ domain of protein A (Priest, R., Nawaz, S., Green, P. M., and Bird, M. I. (1995). Adhesion of eosinophils to E- & P-selectin. Biochem. Soc. Trans. 23, 162S). Tripeptide Tyr-Tyr-Tyr (Bachem, Germany) and aminoglucitol (Sigma) were per-O-sulfated with SO3/Py complex (Field, R. A., Otter, A., Fu, W., Hindsgaul, O. Carbohydr. Res. 1995, 276, 347-363). Fucoidan was purchased from Sigma (USA).
The assay was performed on 96-Well plates. Human IgG was used as a primary coating reagent to immobilize recombinant selectin via the ZZ-domain of the fusion protein. The working concentration of selectin was 3 ng/well. […] Details of this assay were published in (Game, S. M., Rajapurohit, P. K., Clifford, M., Bird, M. I., Priest, R., Bovin, N. V., Nifant'ev, N. E., O'Beime, G., and Cook, N. D. (1998) Scintillation proximity assay for E-, P-, and L-selectin utilizing polyacrylamide-based neoglycoconjugates as ligands. Anal. Biochem. 258, 127-135; Tatyana V. Pochechueva, Oxana E. Galanina, Michael I. Bird, Nikolay E. Nifant'ev, Nicolai V. Bovin. Assembly of P-Selectin Ligands on a Polymeric Template, Chem&Biol, Vol. 9, 2002, p. 757-762; Natalia Ushakova, Marina Preobrazhenskaya, Mike I. Bird, Richard Priest, A. V. Semenov, A. V. Mazurov, Nikolay Ni-fant'ev, Tatyana Pochechueva, Oxaha Galanina, Nicolai Bovin. Monomeric and Multimeric Blockers of Selectins: Comparison of In Vitro and In Vivo Activity/Biol. Chem. Hoppe Seyler, 2002 submitted).

[3] = system: yield of neutrophils; conditions: mouse; Cecconi et al. 1994; cited from earlier work
[4] = system: Peptone-induced acute rat peritonitis; assay: Rat peritoneal inflammation model (peptone-induced acute peritonitis, neutrophil extravasation); assay type: in vivo
Experimental: Acute rat peritonitis was induced as described in (Preobrazhenskaya, M. E., Berman, A. E., Mikhailov, V. I., Ushakova, N. A., Mazurov, A. V., Semenov, A. V., Usov, A. I., Nifant'ev, N. E., and Bovin, N. V. (1997) Fucoidan inhibits leukocyte recruitment in a model peritoneal inflammation in rat and blocks interaction of P-selectin with its carbohydrate ligand. Biochem. Mol. Biol. Int 43, 443-451) with some modifications. 10 ml of PBS containing 10% peptone was injected intraperitoneally into female Wistar rats (180-220 g). After 3 h rats were sacrificed and their peritoneal cavities were laved with 30 ml PBS containing 60 units/ml of heparin, 0.02% EDTA and 0.03% bovine serum. The total cell number in the lavage was counted and the cell suspension was concentrated by centrifugation at 400 g for 10 min. After 1:1 dilution with bovine serum smears were prepared and stained according to the Pappenheim method. Neutrophils were counted on two parallel slides and the total neutrophil number was calculated. The inhibitors were administered intravenously as a single dose in 0.3 ml sterile 0.9% NaCl 15 min after peptone injection. The same volume of NaCl solution Was injected into control animals. A difference between the control and tested groups was analyzed for statistical significance based on Student's t-test, p-values<0.05 were considered to be significant.
Peptone-induced acute rat peritonitis was characterized by neutrophil extravasation into the peritoneal cavities. […] A natural ligand such as recombinant PSGL-1 acts in a dose of about 1 mg/kg (S. P. Khor, K. McCarthy, M. Dupont, K. Murray, G. Timony. Pharmacokinetics, pharmacodynamics, allometry, and dose selection of rPSGL-Ig for phase I trial. J. Pharmacol. Exp. Ther., 293, 618-624 (2000); R. Hayward, B. Campbell, Y. K. Shin, R. Scalia, A. M. Lefer. Recombinant soluble P-selectin glycoprotein ligand-1 protects against myocardial ischemic reperfusion injury in cats. Cardiovascular Res., 41, 65-76 (1999)) which approaches the fucoidan activity under study. […]

[5] = inhibition of HSO3Le^a-PAA-biotin binding with P-selectin, means of at least triplicate determinations

Compound: 3-0-sulfated galactocerebroside [sulfatide]
IC50 ([1]; Marinier et al. 1997, sulfatide and some of its synthetic analogues): 100 to 1000 nM

Compound: O=P(O)(O)O[C@H]1[C@H](OP(=O)(O)O)[C@@H](OP(=O)(O)O)[C@H](OP(=O)(O)O)[C@@H](OP(=O)(O)O)[C@H]1OP(=O)(O)O [Inositol hexaphosphate]
dose inhibiting the yield of neutrophils (almost half of them) [3]: about 70 mg/kg

Compound: Fucoidan
IC50 ([1]; Pochechueva et al., Ley et al. 1993, repeating hexasaccharide units): 100 nM
IC50 [2, 5]: 100 nM
IC50 in weight ([2]; inhibition of HSO3Le^a-PAA-biotin binding with P-selectin, weight concentration): (100 ng/ml)^2
Mean inhibition (% to control) ([4]; Series 2, 1.0 mg per rat i.v.): 92 (p < 0.001) %
Number of neutrophils per rat × 10^−6 ([4]; Series 2, 1.0 mg per rat i.v., mean ± SEM): 2.5 ± 0.5 × 10^−6
blocking of the inflammation process ([4]; result in words): definitely blocked the inflammation process

Compound: Tripeptide Tyr-Tyr-Tyr per-O-sulfated with SO3/Py complex [sTyr-sTyr-sTyr]
IC50, μM [2, 5]: Nl
inhibition of recombinant P-selectin in the cell-free assay [2]: unable to inhibit

The remaining lines, values ahead:

IC50, μM [2, 5]: Nl
Compound: CC(=O)NC1C(O)OC(CO)C(OC2OC(C)C(O)C(O)C2O)C1OC1OC(CO)C(O)C(OS(=O)(=O)O)C1O (centres unmarked) [HSO3Le^a, 3′-HSO3Galβ1-3(Fucα1-4)GIcNAc]

IC50, μM [2, 5]: Nl
Compound: N[C@@H](Cc1ccc(OS(=O)(=O)O)cc1)C(=O)O [sTyr, tyrosine-O-sulfate]

IC50, μM [2, 5]: Nl
inhibition of recombinant P-selectin in the cell-free assay [2]: unable to inhibit
Compound: Hexa-O-sulfo-aminoglucitol
